Calls of active or inactive are those of the source. No cut-off for these calls is given here. Positions of bridges follow the written chain, without caps; N, C: chain ends. Residues, ends and D or L forms follow the SMILES beside them.
Key:
[1] = test system: Danio rerio; assay: Induction of paralysis in adult Zebrafish assessed as induction of rapid flaccid skeletal muscle paralysis dosed via injection measured after 10 mins; format: functional, organism-based
[2] = biological target: Neuronal acetylcholine receptor; alpha2/beta4 (Rattus norvegicus) (UniProt P12389+P12392); assay: Inhibition of rat alpha2beta4 expressed in Xenopus laevis oocytes assessed as acetylcholine-induced channel current response at 10 uM at -70 mV holding potential by two-electrode voltage-clamp assay relative to control; format: cell-based; parameters: scale not given: the % may be the effect or the level left; conditions: Oocyte
[3] = biological target: T1, Neuronal acetylcholine receptor; alpha3/beta2 (Rattus norvegicus) (UniProt P04757+P12390); assay: Competitive inhibition of alpha-conotoxin MII binding to rat alpha3beta2 expressed in Xenopus laevis oocytes at 100 nM; format: cell-based; conditions: Oocyte
[4] = test system: Phrenic nerve-diaphragm muscle; assay: Inhibition of muscle contraction in Swiss mouse isolated phrenic nerve hemidiaphragm muscle preparation assessed as reduction of peak amplitude of 0.1 Hz stimulation-induced nerve contraction at 16 nM incubated for 30 mins relative to control; format: functional; conditions: 0.5 h
[5] = biological target: T2, CHRNA1/CHRNB1/CHRNG/CHRND (Rattus norvegicus) (UniProt P25109+P25108+P25110+P18916); assay: Inhibition of rat (alpha1)2betagammadelta expressed in Xenopus laevis oocytes assessed as dissociation rate constant for inhibition of acetylcholine-induced channel current response at -70 mV holding potential by two-electrode voltage-clamp assay; format: cell-based; conditions: Oocyte
[6] = biological target: Neuronal acetylcholine receptor; alpha4/beta4 (Rattus norvegicus) (UniProt P09483+P12392); assay: Inhibition of rat alpha4beta4 expressed in Xenopus laevis oocytes assessed as acetylcholine-induced channel current response at 10 uM at -70 mV holding potential by two-electrode voltage-clamp assay relative to control; format: cell-based; parameters: scale not given: the % may be the effect or the level left; conditions: Oocyte
[7] = biological target: Neuronal acetylcholine receptor; alpha3/beta4 (Rattus norvegicus) (UniProt P04757+P12392); assay: Inhibition of rat alpha3beta4 expressed in Xenopus laevis oocytes assessed as acetylcholine-induced channel current response at 10 uM at -70 mV holding potential by two-electrode voltage-clamp assay relative to control; format: cell-based; parameters: scale not given: the % may be the effect or the level left; conditions: Oocyte
[8] = biological target: Neuronal acetylcholine receptor; alpha3/beta2 (Rattus norvegicus, UniProt P04757+P12390); assay: Inhibition of rat alpha3beta2 expressed in Xenopus laevis oocytes assessed as inhibition of acetylcholine-induced channel current response at -70 mV holding potential by two-electrode voltage-clamp assay; format: cell-based, Oocyte
Sequence of Neuronal acetylcholine receptor; alpha3/beta2 (P04757 whole entry): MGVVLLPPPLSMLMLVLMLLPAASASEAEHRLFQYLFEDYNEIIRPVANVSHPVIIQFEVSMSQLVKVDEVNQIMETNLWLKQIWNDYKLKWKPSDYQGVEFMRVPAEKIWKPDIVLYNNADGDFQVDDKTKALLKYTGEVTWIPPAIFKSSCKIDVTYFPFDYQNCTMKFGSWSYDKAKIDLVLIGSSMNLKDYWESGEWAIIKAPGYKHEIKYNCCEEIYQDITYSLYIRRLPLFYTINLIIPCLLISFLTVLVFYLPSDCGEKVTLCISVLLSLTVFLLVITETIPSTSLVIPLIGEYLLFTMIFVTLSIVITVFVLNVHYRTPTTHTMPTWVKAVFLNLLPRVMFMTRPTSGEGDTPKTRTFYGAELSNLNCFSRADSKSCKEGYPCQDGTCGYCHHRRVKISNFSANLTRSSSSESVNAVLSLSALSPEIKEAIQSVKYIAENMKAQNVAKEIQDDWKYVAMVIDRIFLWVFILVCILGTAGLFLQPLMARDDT
Sequence of Neuronal acetylcholine receptor; alpha3/beta2 (P12390 whole entry): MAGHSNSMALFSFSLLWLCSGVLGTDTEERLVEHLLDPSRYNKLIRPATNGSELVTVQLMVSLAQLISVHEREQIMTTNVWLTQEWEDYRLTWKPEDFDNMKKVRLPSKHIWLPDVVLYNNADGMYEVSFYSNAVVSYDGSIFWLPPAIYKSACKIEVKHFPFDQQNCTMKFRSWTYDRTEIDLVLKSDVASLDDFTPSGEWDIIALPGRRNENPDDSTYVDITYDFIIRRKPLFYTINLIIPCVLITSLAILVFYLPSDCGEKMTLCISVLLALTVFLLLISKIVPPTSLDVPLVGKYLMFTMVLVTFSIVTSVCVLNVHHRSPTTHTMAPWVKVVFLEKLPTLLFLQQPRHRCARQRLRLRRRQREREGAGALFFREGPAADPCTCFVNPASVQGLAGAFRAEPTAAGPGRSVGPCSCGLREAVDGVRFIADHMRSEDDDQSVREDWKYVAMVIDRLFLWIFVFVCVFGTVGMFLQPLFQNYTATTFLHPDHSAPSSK

[9] = test system: Phrenic nerve-diaphragm muscle; assay: Inhibition of muscle contraction in Swiss mouse isolated phrenic nerve hemidiaphragm muscle preparation assessed as reduction of 0.1 Hz stimulation-induced isometric twitch force by measuring time required to block 50% of nerve-evoked muscle contraction; format: functional
[10] = biological target: CHRNA1/CHRNB1/CHRNG/CHRND (Rattus norvegicus, UniProt P18916+P25108+P25109+P25110); assay: Inhibition of rat (alpha1)2betagammadelta expressed in Xenopus laevis oocytes assessed as inhibition of acetylcholine-induced channel current response at -70 mV holding potential by two-electrode voltage-clamp assay; format: cell-based, Oocyte
Sequence of CHRNA1/CHRNB1/CHRNG/CHRND (P25109 whole entry): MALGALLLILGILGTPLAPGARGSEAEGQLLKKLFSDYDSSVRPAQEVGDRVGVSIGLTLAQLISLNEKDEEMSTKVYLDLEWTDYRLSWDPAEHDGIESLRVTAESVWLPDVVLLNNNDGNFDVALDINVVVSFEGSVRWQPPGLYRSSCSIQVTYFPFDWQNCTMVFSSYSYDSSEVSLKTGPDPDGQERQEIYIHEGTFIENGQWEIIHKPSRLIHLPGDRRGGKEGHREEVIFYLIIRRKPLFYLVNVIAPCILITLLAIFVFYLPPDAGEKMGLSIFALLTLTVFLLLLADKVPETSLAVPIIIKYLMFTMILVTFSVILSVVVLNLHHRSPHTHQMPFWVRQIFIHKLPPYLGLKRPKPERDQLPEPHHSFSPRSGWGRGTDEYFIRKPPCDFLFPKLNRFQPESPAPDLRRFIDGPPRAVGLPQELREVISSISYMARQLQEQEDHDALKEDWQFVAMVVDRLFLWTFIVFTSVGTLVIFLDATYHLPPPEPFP
Sequence of CHRNA1/CHRNB1/CHRNG/CHRND (P25108 whole entry): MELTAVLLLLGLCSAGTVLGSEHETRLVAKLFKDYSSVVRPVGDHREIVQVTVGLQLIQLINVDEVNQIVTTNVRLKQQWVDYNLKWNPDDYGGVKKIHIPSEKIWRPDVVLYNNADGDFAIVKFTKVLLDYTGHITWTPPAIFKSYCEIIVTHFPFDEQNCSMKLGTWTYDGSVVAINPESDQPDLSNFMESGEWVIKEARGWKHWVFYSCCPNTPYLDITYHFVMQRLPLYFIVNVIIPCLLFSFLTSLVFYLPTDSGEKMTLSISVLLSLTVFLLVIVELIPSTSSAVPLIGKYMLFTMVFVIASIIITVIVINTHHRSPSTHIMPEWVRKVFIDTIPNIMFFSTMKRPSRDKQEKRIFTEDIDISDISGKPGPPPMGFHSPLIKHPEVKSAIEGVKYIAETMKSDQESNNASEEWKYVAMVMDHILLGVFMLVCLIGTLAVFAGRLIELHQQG
Sequence of CHRNA1/CHRNB1/CHRNG/CHRND (P25110 whole entry): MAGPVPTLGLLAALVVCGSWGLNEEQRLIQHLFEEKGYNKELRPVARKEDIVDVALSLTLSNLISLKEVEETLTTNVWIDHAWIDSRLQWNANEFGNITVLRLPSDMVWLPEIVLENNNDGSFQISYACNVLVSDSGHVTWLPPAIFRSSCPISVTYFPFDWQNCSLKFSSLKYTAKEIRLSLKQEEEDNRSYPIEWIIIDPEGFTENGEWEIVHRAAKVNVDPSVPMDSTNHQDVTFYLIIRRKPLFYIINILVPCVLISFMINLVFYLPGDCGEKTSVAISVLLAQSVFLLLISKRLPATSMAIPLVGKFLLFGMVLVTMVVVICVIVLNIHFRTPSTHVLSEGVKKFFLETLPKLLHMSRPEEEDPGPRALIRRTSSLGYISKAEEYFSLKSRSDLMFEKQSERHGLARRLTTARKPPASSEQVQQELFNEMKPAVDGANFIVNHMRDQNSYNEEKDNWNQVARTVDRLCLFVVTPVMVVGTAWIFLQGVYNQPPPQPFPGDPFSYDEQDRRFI
Sequence of CHRNA1/CHRNB1/CHRNG/CHRND (P18916 whole entry): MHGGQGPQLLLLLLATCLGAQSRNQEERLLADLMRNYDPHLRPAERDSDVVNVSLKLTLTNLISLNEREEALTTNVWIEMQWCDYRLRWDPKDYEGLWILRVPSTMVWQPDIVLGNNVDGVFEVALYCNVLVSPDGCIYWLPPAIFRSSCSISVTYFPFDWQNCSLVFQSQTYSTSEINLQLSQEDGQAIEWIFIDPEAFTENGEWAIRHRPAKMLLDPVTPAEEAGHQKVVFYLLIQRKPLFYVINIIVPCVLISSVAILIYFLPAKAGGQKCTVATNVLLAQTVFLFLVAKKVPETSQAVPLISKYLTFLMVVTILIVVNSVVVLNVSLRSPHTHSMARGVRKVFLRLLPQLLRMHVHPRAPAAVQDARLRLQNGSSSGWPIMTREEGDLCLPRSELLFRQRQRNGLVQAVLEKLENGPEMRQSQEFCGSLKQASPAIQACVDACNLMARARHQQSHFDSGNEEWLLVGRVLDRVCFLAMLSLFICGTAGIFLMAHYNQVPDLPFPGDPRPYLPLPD

[11] = biological target: Neuronal acetylcholine receptor subunit alpha-7 (Homo sapiens) (UniProt P36544); assay: Inhibition of human alpha7expressed in Xenopus laevis oocytes assessed as acetylcholine-induced channel current response at 10 uM at -70 mV holding potential by two-electrode voltage-clamp assay relative to control; format: cell-based; parameters: scale not given: the % may be the effect or the level left; conditions: Oocyte
[12] = biological target: Neuronal acetylcholine receptor; alpha4/beta2 (Rattus norvegicus) (UniProt P09483+P12390); assay: Inhibition of rat alpha4beta2 expressed in Xenopus laevis oocytes assessed as acetylcholine-induced channel current response at 10 uM at -70 mV holding potential by two-electrode voltage-clamp assay relative to control; format: cell-based; parameters: scale not given: the % may be the effect or the level left; conditions: Oocyte
[13] = biological target: Nicotinic acetylcholine receptor alpha6/alpha3/beta2/beta3 (Rattus norvegicus, UniProt P04757+P12390+P12391+P43143); assay: Inhibition of rat alpha6alpha3beta2beta3 expressed in Xenopus laevis oocytes assessed as inhibition of acetylcholine-induced channel current response at -70 mV holding potential by two-electrode voltage-clamp assay relative to control; format: cell-based, Oocyte
Sequence of Nicotinic acetylcholine receptor alpha6/alpha3/beta2/beta3 (P04757 whole entry): as the sequence (P04757 whole entry) above
Sequence of Nicotinic acetylcholine receptor alpha6/alpha3/beta2/beta3 (P12390 whole entry): as the sequence (P12390 whole entry) above
Sequence of Nicotinic acetylcholine receptor alpha6/alpha3/beta2/beta3 (P12391 whole entry): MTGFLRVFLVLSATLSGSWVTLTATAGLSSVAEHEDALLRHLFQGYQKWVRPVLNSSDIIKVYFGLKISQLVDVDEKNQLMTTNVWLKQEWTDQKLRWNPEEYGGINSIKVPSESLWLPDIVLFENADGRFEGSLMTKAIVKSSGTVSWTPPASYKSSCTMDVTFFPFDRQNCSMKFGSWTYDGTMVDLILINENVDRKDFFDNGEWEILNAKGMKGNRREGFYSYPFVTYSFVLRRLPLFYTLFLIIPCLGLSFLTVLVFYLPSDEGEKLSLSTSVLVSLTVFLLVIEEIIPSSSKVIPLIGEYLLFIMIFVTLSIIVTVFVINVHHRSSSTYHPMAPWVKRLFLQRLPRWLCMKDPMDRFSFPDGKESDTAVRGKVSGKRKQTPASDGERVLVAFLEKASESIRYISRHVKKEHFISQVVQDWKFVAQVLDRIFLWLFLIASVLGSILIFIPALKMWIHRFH
Sequence of Nicotinic acetylcholine receptor alpha6/alpha3/beta2/beta3 (P43143 whole entry): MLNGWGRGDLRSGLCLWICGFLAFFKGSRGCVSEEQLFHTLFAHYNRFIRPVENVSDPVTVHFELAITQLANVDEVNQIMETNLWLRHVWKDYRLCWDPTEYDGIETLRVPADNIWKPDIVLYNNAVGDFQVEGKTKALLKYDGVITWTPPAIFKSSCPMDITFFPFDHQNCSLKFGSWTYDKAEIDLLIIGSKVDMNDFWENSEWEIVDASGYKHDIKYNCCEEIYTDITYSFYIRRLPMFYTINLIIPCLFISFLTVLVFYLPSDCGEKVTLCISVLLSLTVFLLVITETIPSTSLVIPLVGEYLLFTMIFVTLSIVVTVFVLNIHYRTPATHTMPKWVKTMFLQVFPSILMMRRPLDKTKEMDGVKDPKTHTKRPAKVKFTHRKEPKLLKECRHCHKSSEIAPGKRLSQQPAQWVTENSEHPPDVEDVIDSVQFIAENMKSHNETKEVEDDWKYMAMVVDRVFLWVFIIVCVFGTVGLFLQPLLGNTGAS

[14] = test system: Phrenic nerve-diaphragm muscle; assay: Inhibition of muscle contraction in Swiss mouse isolated phrenic nerve hemidiaphragm muscle preparation assessed as reduction of 0.1 Hz stimulation-induced isometric twitch force incubated for 20 to 25 mins; format: functional, tissue-based
[15] = test system: Phrenic nerve-diaphragm muscle; assay: Reduction in fading of train-of four repetitive stimulation pattern in Swiss mouse isolated phrenic nerve hemidiaphragm muscle preparation at 20 nM; format: functional, tissue-based
[16] = test system: Phrenic nerve-diaphragm muscle; assay: Inhibition of muscle contraction in Swiss mouse isolated phrenic nerve hemidiaphragm muscle preparation assessed as reduction of peak amplitude of 0.1 Hz stimulation-induced nerve contraction at 16 nM incubated for 30 mins followed addition of 10 uM addition of 3,4-DAP for 27 mins by relative to control; format: functional, tissue-based; conditions: time 57.0 min
[17] = test system: Phrenic nerve-diaphragm muscle; assay: Induction of fading of train-of four repetitive stimulation pattern in Swiss mouse isolated phrenic nerve hemidiaphragm muscle preparation measured at 76% neuromuscular block; format: functional, tissue-based
[18] = test system: Phrenic nerve-diaphragm muscle; assay: Inhibition of muscle contraction in Swiss mouse isolated phrenic nerve hemidiaphragm muscle preparation assessed as reduction of 0.1 Hz stimulation-induced isometric twitch force by measuring time required for 40% recovery of nerve-evoked muscle contraction; format: functional
[19] = biological target: Neuronal acetylcholine receptor; alpha9/alpha10 (Homo sapiens) (UniProt Q9UGM1+Q9GZZ6); assay: Inhibition of human alpha9alpha10 expressed in Xenopus laevis oocytes assessed as acetylcholine-induced channel current response at 10 uM at -70 mV holding potential by two-electrode voltage-clamp assay relative to control; format: cell-based; parameters: scale not given: the % may be the effect or the level left; conditions: Oocyte
[20] = biological target: T1, Neuronal acetylcholine receptor; alpha3/beta2 (Rattus norvegicus); assay: Inhibition of rat alpha3beta2 expressed in Xenopus laevis oocytes assessed as wash-out time needed for recovery of ACh-induced current responses at -70 mV holding potential by two-electrode voltage-clamp assay; format: cell-based; conditions: Oocyte
[21] = biological target: Neuronal acetylcholine receptor; alpha2/beta2 (Rattus norvegicus) (UniProt P12389+P12390); assay: Inhibition of rat alpha2beta2 expressed in Xenopus laevis oocytes assessed as acetylcholine-induced channel current response at 10 uM at -70 mV holding potential by two-electrode voltage-clamp assay relative to control; format: cell-based; parameters: scale not given: the % may be the effect or the level left; conditions: Oocyte
[22] = biological target: Nicotinic acetylcholine receptor alpha-1/beta-1/delta/epsilon (Homo sapiens) (UniProt P02708+P11230+Q07001+Q04844); assay: Inhibition of adult human (alpha1)2beta1epsilondelta expressed in Xenopus laevis oocytes assessed as dissociation rate constant for inhibition of acetylcholine-induced channel current response at 1 nM at -70 mV holding potential by two-electrode voltage-clamp assay relative to control; format: cell-based; conditions: Oocyte
[23] = test system: Phrenic nerve-diaphragm muscle; assay: Inhibition of muscle contraction in Swiss mouse isolated phrenic nerve hemidiaphragm muscle preparation assessed as reduction of twitch tension-time integrals of 0.1 Hz stimulation-induced nerve contraction at 16 nM incubated for 30 mins followed addition of 10 uM addition of 3,4-DAP for 27 mins by relative to control; format: functional, tissue-based; conditions: time 57.0 min
[24] = biological target: T2, CHRNA1/CHRNB1/CHRNG/CHRND (Rattus norvegicus); assay: Inhibition of fetal rat (alpha1)2beta1gammadelta expressed in Xenopus laevis oocytes assessed as dissociation rate constant for inhibition of acetylcholine-induced channel current response at 100 nM at -70 mV holding potential by two-electrode voltage-clamp assay; format: cell-based; conditions: Oocyte
[25] = organism: Danio rerio; assay: Induction of paralysis in Zebrafish assessed as inhibition of larvae movement movement at 100 uM added into the water and measured over 1 hr by larvae movement tracking analysis relative to control; format: functional
[26] = Half life in human serum at 30 uM by LC-MS analysis; format: ADME, cell-free
[27] = biological target: Nicotinic acetylcholine receptor alpha-1/beta-1/delta/epsilon (Rattus norvegicus, UniProt P09660+P25108+P25109+P25110); assay: Inhibition of rat alpha1beta1epsilondelta expressed in Xenopus laevis oocytes assessed as inhibition of acetylcholine-induced channel current response at -70 mV holding potential by two-electrode voltage-clamp assay relative to control; format: cell-based, Oocyte
Sequence of Nicotinic acetylcholine receptor alpha-1/beta-1/delta/epsilon (P25109 whole entry): as the sequence (P25109 whole entry) above
Sequence of Nicotinic acetylcholine receptor alpha-1/beta-1/delta/epsilon (P25108 whole entry): as the sequence (P25108 whole entry) above
Sequence of Nicotinic acetylcholine receptor alpha-1/beta-1/delta/epsilon (P25110 whole entry): as the sequence (P25110 whole entry) above
Sequence of Nicotinic acetylcholine receptor alpha-1/beta-1/delta/epsilon (P09660 whole entry): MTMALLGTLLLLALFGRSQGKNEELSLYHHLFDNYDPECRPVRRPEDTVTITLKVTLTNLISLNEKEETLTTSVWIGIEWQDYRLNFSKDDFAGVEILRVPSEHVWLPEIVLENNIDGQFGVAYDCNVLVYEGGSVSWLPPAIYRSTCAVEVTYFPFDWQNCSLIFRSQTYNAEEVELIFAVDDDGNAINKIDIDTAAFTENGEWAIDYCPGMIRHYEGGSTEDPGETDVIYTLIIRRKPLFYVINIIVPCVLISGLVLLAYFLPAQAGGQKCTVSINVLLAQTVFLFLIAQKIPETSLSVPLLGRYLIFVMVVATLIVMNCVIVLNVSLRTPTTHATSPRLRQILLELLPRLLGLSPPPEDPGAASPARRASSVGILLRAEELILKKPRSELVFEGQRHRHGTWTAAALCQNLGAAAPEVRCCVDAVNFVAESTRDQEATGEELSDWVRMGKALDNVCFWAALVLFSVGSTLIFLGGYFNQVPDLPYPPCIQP

[28] = Mus musculus, Swiss, Phrenic nerve-diaphragm muscle

SMILES | Activity [1] | IC50 ([1]; Danio rerio, 10 min) [nM] | K [5] [min⁻¹] | IC50 [8] [nM] | IC50 [10] [nM] | IC50 [14, 28] [nM] | Activity [15] | inhibition in vivo at 100 µM [25] [%] | half-life at 30 µM [26] [h] | also measured
C[C@@H]1NC(=O)[C@H](C)NC(=O)[C@@H]2CSSC[C@@H]3NC(=O)[C@H](CSSC[C@H](NC(=O)[C@H](C)NC(=O)[C@@H]4CCCN4C(=O)[C@H](Cc4c[nH]cn4)NC3=O)C(=O)NCC(=O)N[C@@H](CCCCN)C(=O)N[C@@H](Cc3c[nH]cn3)C(=O)N[C@@H](Cc3ccccc3)C(=O)N[C@@H](CO)C(=O)N2)NC(=O)[C@H](CCCNC(=N)N)NC(=O)CNC(=O)[C@H](CC(N)=O)NC(=O)CNC1=O (cyclo(AAGNGRCCHPACGKHFSC); disulfide 7-12, 8-18) | Dose-dependent effect | 57900 | 0.03 | 1.3 | 3.57 | 8.7 | inactive | 20.5 | 5.33 | Activity [2]: > 80%; inhibition [3]: Active; inhibition at 0.016 µM [4]: 85%; Activity [6]: > 80%; Activity [7]: > 80%; Time [9]: 19 min; Activity [11]: 65%; Activity [12]: > 80%; IC50 [13]: 8.64 nM; inhibition [16]: inactive; Activity [17]: inactive; Time [18]: 32.6 min; Activity [19]: > 80%; TIME [20]: 0.5 h; Activity [21]: > 80%; K [22]: 0.013 min⁻¹; inhibition [23]: inactive; K [24]: 0.03 min⁻¹; IC50 [27]: 0.184 nM
C[C@@H]1NC(=O)[C@@H]2CCCN2C(=O)[C@H](Cc2c[nH]cn2)NC(=O)[C@@H]2CSSC[C@@H](C(N)=O)NC(=O)[C@H](CO)NC(=O)[C@H](Cc3ccccc3)NC(=O)[C@H](Cc3c[nH]cn3)NC(=O)[C@H](CCCCN)NC(=O)CNC(=O)[C@H](CSSC[C@H](NC(=O)[C@H](CCCNC(=N)N)NC(=O)CNC(=O)[C@@H](N)CC(N)=O)C(=O)N2)NC1=O (H-NGRCCHPACGKHFSC-NH2; disulfide 4-9, 5-15) | Dose-dependent effect | – | – | – | – | – | inactive | – | 1.33 | IC50 [1]: 6900 nM; IC50 [14]: 8.98 nM
C[C@@H]1NC(=O)CNC(=O)[C@@H]2CSSC[C@@H]3NC(=O)[C@H](CSSC[C@H](NC(=O)[C@H](C)NC(=O)[C@@H]4CCCN4C(=O)[C@H](Cc4c[nH]cn4)NC3=O)C(=O)NCC(=O)N[C@@H](CCCCN)C(=O)N[C@@H](Cc3c[nH]cn3)C(=O)N[C@@H](Cc3ccccc3)C(=O)N[C@@H](CO)C(=O)N2)NC(=O)[C@H](CCCNC(=N)N)NC(=O)CNC(=O)[C@H](CC(N)=O)NC(=O)CNC(=O)[C@H](C)NC1=O (cyclo(AAGNGRCCHPACGKHFSCG); disulfide 7-12, 8-18) | Dose-dependent effect | 76200 | 0.066 | 21.3 | 8.64 | 16.5 | inactive | 25.2 | > 8 | –
C[C@@H]1NC(=O)[C@@H]2CSSC[C@@H]3NC(=O)[C@H](CSSC[C@H](NC(=O)[C@H](C)NC(=O)[C@@H]4CCCN4C(=O)[C@H](Cc4c[nH]cn4)NC3=O)C(=O)NCC(=O)N[C@@H](CCCCN)C(=O)N[C@@H](Cc3c[nH]cn3)C(=O)N[C@@H](Cc3ccccc3)C(=O)N[C@@H](CO)C(=O)N2)NC(=O)[C@H](CCCNC(=N)N)NC(=O)CNC(=O)[C@H](CC(N)=O)NC(=O)CNC1=O (cyclo(ACGKHFSCAGNGRCCHP); disulfide 2-14, 8-15) | Dose-dependent effect | 12100 | 0.126 | 10.3 | 7.54 | 13.5 | inactive | 99.8 | 7.33 | –

— ChEMBL document CHEMBL4665854, “Backbone Cyclization Turns a Venom Peptide into a Stable and Equipotent Ligand at Both Muscle and Neuronal Nicotinic Receptors” (J Med Chem, 2020)
